PMC2263054, “Functional evolution of the vitamin D and pregnane X receptors” (BMC Evolutionary Biology, 2007)
Where a name gives a salt, the structure may show the parent alone. Read-outs that look alike come from different tables or passages of the source.

Assays:
Type in all cases: cell-based
Zebrafish VDR = target: T1, Zebrafish VDR (Danio rerio, UniProt Q9PTN2); experiment: luciferase reporter transactivation assay in HepG2-NTCP cells, GAL4/zfVDR LBD chimera with tk-UAS-Luc
T1 sequence (Q9PTN2 121-453): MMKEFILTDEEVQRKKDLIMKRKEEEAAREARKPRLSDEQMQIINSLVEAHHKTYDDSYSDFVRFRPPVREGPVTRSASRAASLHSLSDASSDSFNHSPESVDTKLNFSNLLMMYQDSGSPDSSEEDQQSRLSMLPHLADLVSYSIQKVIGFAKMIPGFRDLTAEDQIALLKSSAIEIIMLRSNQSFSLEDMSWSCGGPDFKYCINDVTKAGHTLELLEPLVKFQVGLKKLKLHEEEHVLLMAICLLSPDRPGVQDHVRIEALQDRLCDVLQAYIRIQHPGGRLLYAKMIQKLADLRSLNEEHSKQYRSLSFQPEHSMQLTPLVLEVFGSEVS

Xenopus laevis VDR = target: T2, Xenopus laevis VDR (Xenopus laevis, UniProt O13124); experiment: luciferase reporter transactivation assay in HepG2-NTCP cells, GAL4/xlVDR LBD chimera with tk-UAS-Luc
T2 sequence (O13124 90-422): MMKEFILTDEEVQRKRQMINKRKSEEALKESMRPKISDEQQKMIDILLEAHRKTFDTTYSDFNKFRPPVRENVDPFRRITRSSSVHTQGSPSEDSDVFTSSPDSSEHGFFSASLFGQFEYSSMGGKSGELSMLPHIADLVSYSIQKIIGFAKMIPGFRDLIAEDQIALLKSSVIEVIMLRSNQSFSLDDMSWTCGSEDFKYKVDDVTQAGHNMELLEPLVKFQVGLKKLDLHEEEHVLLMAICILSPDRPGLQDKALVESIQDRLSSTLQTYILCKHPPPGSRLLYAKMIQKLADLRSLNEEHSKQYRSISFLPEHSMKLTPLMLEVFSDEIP

Sea lamprey VDR = target: T3, Sea lamprey VDR (Petromyzon marinus, UniProt Q7ZZY9)
T3 sequence (Q7ZZY9 92-406): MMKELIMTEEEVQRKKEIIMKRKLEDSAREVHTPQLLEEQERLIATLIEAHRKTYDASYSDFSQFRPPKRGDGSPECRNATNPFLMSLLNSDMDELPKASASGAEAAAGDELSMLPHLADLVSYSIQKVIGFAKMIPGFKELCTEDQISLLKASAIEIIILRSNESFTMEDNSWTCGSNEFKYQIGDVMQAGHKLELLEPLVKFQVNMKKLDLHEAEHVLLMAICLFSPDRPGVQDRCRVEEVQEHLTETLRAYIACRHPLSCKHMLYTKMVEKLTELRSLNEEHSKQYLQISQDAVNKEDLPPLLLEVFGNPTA

[1] = screening for activators, at least three concentrations of each drug
[2] = screening for activators, at least three concentrations of each drug, listed as testosterone

| Compound | Effect on zebrafish VDR (Zebrafish VDR; [1]) | Effect on Xenopus laevis VDR (Xenopus laevis VDR; [1]) | Effect on sea lamprey VDR (Sea lamprey VDR; [1]) | further results |
| --- | --- | --- | --- | --- |
| 4-Pregnen-17,20b-diol-3-one sulfate | No effect | No effect | No effect | – |
| 17-Hydroxyprogesterone | No effect | No effect | No effect | – |
| C[C@]12CC[C@@H]3c4cc(O)c(O)cc4CC[C@H]3[C@@H]1CCC2=O [2-Hydroxyestrone] | No effect | No effect | No effect | – |
| O=C(O)CCc1cc(I)c(O)c(I)c1 [3,5-Diiodo-4-hydroxyphenylpropionic acid] | No effect | No effect | No effect | – |
| N[C@@H](Cc1cc(I)c(O)c(I)c1)C(=O)O.O.O [3,5-Diiodo-L-tyroside dihydrate] | No effect | No effect | No effect | – |
| C[C@@]12C=CC[C@H]1[C@@H]1CCC3=CC(=O)CC[C@]3(C)[C@H]1CC2 [4,16-Androstadien-3-one] | No effect | No effect | No effect | – |
| CC1=C(/C=C/C(C)=C/C=C/C(C)=C/C(=O)O)C(C)(C)CCC1O (stereo not shown) [4-Hydroxretinoic acid] | No effect | No effect | No effect | – |
| CC1=C(/C=C/C(C)=C/C=C/C(C)=C/C(=O)Nc2ccc(O)cc2)C(C)(C)CCC1 [4-Hydroxyphenylretinamide] | No effect | No effect | No effect | – |
| COc1c(O)ccc2c1CC[C@@H]1[C@@H]2CC[C@]2(C)C(=O)CC[C@@H]12 [4-Methoxyestrone] | – | – | – | Effect on zebrafish VDR (Zebrafish VDR): No effect; Effect on Xenopus laevis VDR (Xenopus laevis VDR): No effect; Effect on sea lamprey VDR (Sea lamprey VDR): No effect |
| C[C@]12CCC(=O)C=C1CC[C@@H]1[C@@H]2CC[C@@]2(C)[C@H]1CC[C@]2(O)C(=O)CO [4-Pregnen-17,21-diol-3,20-dione] | No effect | No effect | No effect | – |
| CCCCCC=CCC=CCC=CCC=CCCCC(=O)O [5,8,11,14-Eicosatetranoic acid] | No effect | No effect | No effect | – |
| C[C@@]12C=CC[C@H]1[C@@H]1CC=C3C[C@@H](O)CC[C@]3(C)[C@H]1CC2 [5,16-Androstadien-3b-ol] | No effect | No effect | No effect | – |
| CC[C@@]1(O)CC[C@H]2[C@@H]3CC=C4C[C@@H](OS(=O)(=O)O)CC[C@]4(C)[C@H]3CC[C@@]21C [5-Pregnen-3b,17-diol 3-sulfate] | No effect | No effect | No effect | – |
| C[C@]12CC[C@@H](O)C[C@@H]1CC[C@@H]1[C@@H]2CC[C@]2(C)[C@@H](O)CC[C@@H]12 [5a-Androstan-3a,17b-diol] | No effect | No effect | No effect | – |
| C[C@@]12CCC[C@H]1[C@@H]1CC[C@H]3C[C@@H](O)CC[C@]3(C)[C@H]1CC2 [5a-Androstan-3b-ol] | No effect | No effect | No effect | – |
| CC(CO)CCC[C@@H](C)[C@H]1[C@H](O)C[C@H]2[C@@H]3[C@H](O)C[C@H]4C[C@H](O)CC[C@]4(C)[C@H]3CC[C@]12C (stereo partly shown) [5a-Cholestan-3a,7a,16a,27-tetrol] | No effect | No effect | No effect | – |
| C[C@]12CC[C@@H](O)C[C@@H]1CC[C@@H]1[C@@H]2[C@@H](O)C[C@]2(C)[C@@H](C(=O)CO)CC[C@@H]12 [5a-Pregnan-3a,11b,21-triol-20-one] | No effect | No effect | No effect | – |
| C[C@]12CC[C@H](O)C[C@@H]1CC[C@@H]1[C@@H]2CC[C@]2(C)C(=O)CC[C@@H]12 [5a-androstan-3b-ol-17-one] | No effect | No effect | No effect | – |

| Compound | Effect on zebrafish VDR (Zebrafish VDR; [1]) | Effect on Xenopus laevis VDR (Xenopus laevis VDR; [1]) | Effect on sea lamprey VDR (Sea lamprey VDR; [1]) | further results |
| --- | --- | --- | --- | --- |
| CC(C)CCC[C@@H](C)[C@H]1CC[C@H]2[C@@H]3CC[C@H]4C[C@@H](OS(=O)(=O)O)CC[C@]4(C)[C@H]3CC[C@]12C [5a-cholestan-3b-ol sulfate] | No effect | No effect | No effect | – |
| CC(O)C1CCC2C3CCC4CC(O)CCC4(C)C3CCC12C (stereo not shown) [5a-pregnan-3a,20a-diol] | No effect | No effect | No effect | – |
| CC(=O)[C@H]1CC[C@H]2[C@@H]3CC[C@H]4C[C@H](O)CC[C@]4(C)[C@H]3CC[C@]12C [5a-pregnan-3a-ol-20-one] | No effect | No effect | No effect | – |
| C[C@]12CC[C@@H](O)C[C@H]1CC[C@@H]1[C@@H]2[C@@H](O)C[C@]2(C)C(=O)CC[C@@H]12 [5b-Androstan-3a,11b-17-one] | No effect | No effect | No effect | – |
| C[C@]12CC[C@@H](O)C[C@H]1CC[C@@H]1[C@@H]2C(=O)C[C@]2(C)C(=O)CC[C@@H]12 [5b-Androstan-3a-ol-11,17-one] | No effect | No effect | No effect | – |
| C[C@@]12CCC[C@H]1[C@@H]1CC[C@@H]3C[C@@H](O)CC[C@]3(C)[C@H]1CC2 [5b-Androstan-3b-ol] | No effect | No effect | No effect | – |
| C[C@H](CCCO)[C@H]1CC[C@H]2[C@@H]3[C@H](O)C[C@@H]4C[C@H](O)CC[C@]4(C)[C@H]3C[C@H](O)[C@]12C [5b-Cholan-3a,7a,12a,24-tetrol] | No effect | No effect | No effect | – |
| CCC[C@@H](C)[C@H]1CC[C@H]2[C@@H]3[C@H](O)C[C@@H]4C[C@H](O)CC[C@]4(C)[C@H]3C[C@H](O)[C@]12C [5b-Cholan-3a,7a,12a-triol] | No effect | No effect | No effect | – |
| C[C@]12CCC(=O)C=C1CC[C@@H]1[C@@H]2CC[C@]2(C)C(=O)CC[C@@H]12 [Androstenedione] | No effect | – | No effect | – |
| C[C@H](CCC(=O)O)[C@H]1CC[C@H]2[C@@H]3[C@H](O)C[C@@H]4C[C@H](O)CC[C@]4(C)[C@H]3C[C@H](O)[C@]12C [Cholic acid] | No effect | No effect | – | – |
| C[C@]12CC[C@H]3[C@@H](CCC4=CC(=O)CC[C@@]43C)[C@@H]1CC[C@H]2O [Epitestosterone] | No effect | No effect | – | – |
| C[C@]12CC[C@@H]3c4ccc(O)cc4CC[C@H]3[C@@H]1CCC2=O [Estrone] | No effect | – | No effect | – |
| COC(C)(C)CCCC(C)C/C=C/C(C)=C/C(=O)O (stereo not shown) [Methoprene acid] | No effect | – | No effect | – |
| CC#C[C@]1(O)CC[C@H]2[C@@H]3CCC4=CC(=O)CCC4=C3[C@@H](c3ccc(N(C)C)cc3)C[C@@]21C [Mifepristone] | – | No effect | – | Effect on sea lamprey VDR (Sea lamprey VDR): No effect |
| C[C@]12CC[C@H]3[C@@H](CCC4=CC(=O)CC[C@@]43C)[C@@H]1CC[C@@H]2O [Testosterone] | No effect | No effect | – | Effect on zebrafish VDR (Zebrafish VDR; [2]): None of these three VDRs were activated; Effect on Xenopus laevis VDR (Xenopus laevis VDR; [2]): None of these three VDRs were activated |
| CC1=C(/C=C/C(C)=C/C=C/C(C)=C/CO)C(C)(C)CCC1 [all-trans-Retinol] | No effect | – | – | – |
| S-Farnesyl-L-cysteine methyl ester | No effect | – | No effect | – |
